According to patent US12630528B2, “Amino aryl derivative useful as diacylglycerol acyltransferase 2 inhibitor and use thereof” (LG CHEM, LTD., priority 2019, dated 2026):
pIC50: −log10 of the molar value.

Target: T1, human DGAT2 (Homo sapiens, UniProt Q96PD7)
T1 construct: FLAG (DYKDDDDK); made in house; host or cells: Sf-21 insect cells (BacPAK baculovirus system); membrane fraction used
T1 sequence (Q96PD7 1-388): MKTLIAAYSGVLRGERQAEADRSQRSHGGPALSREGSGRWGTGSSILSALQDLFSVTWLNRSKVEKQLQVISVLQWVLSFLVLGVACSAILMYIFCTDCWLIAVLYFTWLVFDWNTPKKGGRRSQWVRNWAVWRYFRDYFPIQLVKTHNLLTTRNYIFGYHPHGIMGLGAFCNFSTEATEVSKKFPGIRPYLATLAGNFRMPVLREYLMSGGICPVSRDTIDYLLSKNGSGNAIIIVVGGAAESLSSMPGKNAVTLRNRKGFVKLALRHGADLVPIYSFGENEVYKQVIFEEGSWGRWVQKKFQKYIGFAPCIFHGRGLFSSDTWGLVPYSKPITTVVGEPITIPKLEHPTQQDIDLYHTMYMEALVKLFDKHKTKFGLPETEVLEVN
Assay: DGAT2 enzyme activity inhibition, Phospholipid FlashPlate SPA
Type: biochemical
Conditions: recombinant human DGAT2 membrane protein from Sf-21 cells; inhibition of [14C]-TG production; 37° C.
Summary of the method: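 Sf-21 membranes expressing recombinant human DGAT2 (2 μg) preincubated with compound (3 nM–10 μM, 1% DMSO) and 50 μM 1,2 sn-oleoyl glycerol, 20 min at 37 °C, then 1 μM [14C]oleoyl-CoA for 15 min. [14C]-TG counted by SPA; inhibition as % of untreated.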

SMILES	pIC50
CCOc1ccccc1O[C@@H]1CCCN(c2cncc(Nc3nccc(-c4cccc(CC(=O)O)c4)n3)n2)C1 [Example 140, (R)-2-(3-(2-((6-(3-(2-ethoxyphenoxy)piperidin-1-yl)pyrazin-2-yl)amino)pyrimidin-4-yl)phenyl)acetic Acid]	6.82
CCOc1ccccc1O[C@@H]1CCCN(c2cncc(Nc3nccc(-c4cccc(C(C)(C)C(=O)O)c4)n3)n2)C1 [Example 141, (R)-2-(3-(2-((6-(3-(2-ethoxyphenoxy)piperidin-1-yl)pyrazin-2-yl)amino)pyrimidin-4-yl)phenyl)-2-methylpropanoic Acid]	5.80
CCOc1cccnc1O[C@@H]1CCCN(c2cncc(Nc3nccc(-c4cccc(C(C)(C)C(=O)O)c4)n3)n2)C1 [Example 142, (R)-2-(3-(2-((6-(3-((3-ethoxypyridin-2-yl)oxy)piperidin-1-yl)pyrazin-2-yl)amino)pyrimidin-4-yl)phenyl)-2-methylpropanoic Acid]	6.42
CCOc1ccccc1O[C@@H]1CCCN(c2cncc(Nc3nccc(-c4ccc(C(C)(C)C(=O)O)cc4)n3)n2)C1 [Example 143, (R)-2-(4-(2-((6-(3-(2-ethoxyphenoxy)piperidin-1-yl)pyrazin-2-yl)amino)pyrimidin-4-yl)phenyl)-2-methylpropanoic Acid]	6.70
CCOc1cccnc1O[C@@H]1CCCN(c2cncc(Nc3nccc(-c4ccc(C(C)(C)C(=O)O)cc4)n3)n2)C1 [Example 144, (R)-2-(4-(2-((6-(3-((3-ethoxypyridin-2-yl)oxy)piperidin-1-yl)pyrazin-2-yl)amino)pyrimidin-4-yl)phenyl)-2-methylpropanoic Acid]	6.64
CCOc1ccccc1O[C@@H]1CCCN(c2cncc(Nc3nccc(-c4cccc(CCC(=O)O)c4)n3)n2)C1 [Example 145, (R)-3-(3-(2-((6-(3-(2-ethoxyphenoxy)piperidin-1-yl)pyrazin-2-yl)amino)pyrimidin-4-yl)phenyl)propanoic Acid]	5.77
CCOc1ccccc1O[C@@H]1CCCN(c2cncc(Nc3nccc(-c4cccc(CC(C)(C)C(=O)O)c4)n3)n2)C1 [Example 146, (R)-3-(3-(2-((6-(3-(2-ethoxyphenoxy)piperidin-1-yl)pyrazin-2-yl)amino)pyrimidin-4-yl)phenyl)-2,2-dimethylpropanoic Acid]	6.41
CCOc1cccnc1O[C@@H]1CCCN(c2cncc(Nc3nccc(-c4cccc(CC(C)(C)C(=O)O)c4)n3)n2)C1 [Example 147, (R)-3-(3-(2-((6-(3-((3-ethoxypyridin-2-yl)oxy)piperidin-1-yl)pyrazin-2-yl)amino)pyrimidin-4-yl)phenyl)-2,2-dimethylpropanoic Acid]	6.82
CCOc1ccccc1O[C@@H]1CCCN(c2cccc(Nc3nccc(-c4cccc(CC(C)(C)C(=O)O)c4)n3)n2)C1 [Example 148, (R)-3-(3-(2-((6-(3-(2-ethoxyphenoxy)piperidin-1-yl)pyridin-2-yl)amino)pyrimidin-4-yl)phenyl)-2,2-dimethylpropanoic Acid]	5.51
CCOc1ccccc1O[C@@H]1CCCN(c2nccc(Nc3nccc(-c4cccc(CC(C)(C)C(=O)O)c4)n3)n2)C1 [Example 149, (R)-3-(3-(2-((2-(3-(2-ethoxyphenoxy)piperidin-1-yl)pyrimidin-4-yl)amino)pyrimidin-4-yl)phenyl)-2,2-dimethylpropanoic Acid]	5.30
CCOc1ccccc1O[C@@H]1CCCN(c2ccnc(Nc3nccc(-c4cccc(CC(C)(C)C(=O)O)c4)n3)n2)C1 [Example 150, (R)-3-(3-(2-((4-(3-(2-ethoxyphenoxy)piperidin-1-yl)pyrimidin-2-yl)amino)pyrimidin-4-yl)phenyl)-2,2-dimethylpropanoic Acid]	5.92
CCOc1cccnc1O[C@@H]1CCCN(c2cncc(Nc3nccc(-c4ccc(CC(=O)O)cc4)n3)n2)C1 [Example 152, (R)-2-(4-(2-((6-(3-((3-ethoxypyridin-2-yl)oxy)piperidin-1-yl)pyrazin-2-yl)amino)pyrimidin-4-yl)phenyl)acetic Acid]	6.09
CCOc1ccccc1O[C@@H]1CCCN(c2cncc(Nc3nccc(-c4ccc(CC(C)(C)C(=O)O)cc4)n3)n2)C1 [Example 153, (R)-3-(4-(2-((6-(3-(2-ethoxyphenoxy)piperidin-1-yl)pyrazin-2-yl)amino)pyrimidin-4-yl)phenyl)-2,2-dimethylpropanoic Acid]	6.80
CCOc1cccnc1O[C@@H]1CCCN(c2cncc(Nc3nccc(-c4ccc(CC(C)(C)C(=O)O)cc4)n3)n2)C1 [Example 154, (R)-3-(4-(2-((6-(3-((3-ethoxypyridin-2-yl)oxy)piperidin-1-yl)pyrazin-2-yl)amino)pyrimidin-4-yl)phenyl)-2,2-dimethylpropanoic Acid]	6.74
CCOc1ccccc1O[C@@H]1CCCN(c2nccc(Nc3nccc(-c4ccc(CC(C)(C)C(=O)O)cc4)n3)n2)C1 [Example 155, (R)-3-(4-(2-((2-(3-(2-ethoxyphenoxy)piperidin-1-yl)pyrimidin-4-yl)amino)pyrimidin-4-yl)phenyl)-2,2-dimethylpropanoic Acid]	6.26
CCOc1ccccc1O[C@@H]1CCCN(c2ccnc(Nc3nccc(-c4ccc(CC(C)(C)C(=O)O)cc4)n3)n2)C1 [Example 156, (R)-3-(4-(2-((4-(3-(2-ethoxyphenoxy)piperidin-1-yl)pyrimidin-2-yl)amino)pyrimidin-4-yl)phenyl)-2,2-dimethylpropanoic Acid]	5.92
CCOc1cccnc1O[C@@H]1CCCN(c2ccnc(Nc3nccc(-c4ccc(CC(C)(C)C(=O)O)cc4)n3)n2)C1 [Example 157, (R)-3-(4-(2-((4-(3-((3-ethoxypyridin-2-yl)oxy)piperidin-1-yl)pyrimidin-2-yl)amino)pyrimidin-4-yl)phenyl)-2,2-dimethylpropanoic Acid]	6.14
CCOc1ccccc1O[C@@H]1CCCN(c2cncc(Nc3nccc(-c4cccc(OC(C)(C)C(=O)O)c4)n3)n2)C1 [Example 158, (R)-2-(3-(2-((6-(3-(2-ethoxyphenoxy)piperidin-1-yl)pyrazin-2-yl)amino)pyrimidin-4-yl)phenoxy)-2-methylpropanoic Acid]	5.96
CCOc1cccnc1O[C@@H]1CCCN(c2cncc(Nc3nccc(-c4cccc(OC(C)(C)C(=O)O)c4)n3)n2)C1 [Example 159, (R)-2-(3-(2-((6-(3-((3-ethoxypyridin-2-yl)oxy)piperidin-1-yl)pyrazin-2-yl)amino)pyrimidin-4-yl)phenoxy)-2-methylpropanoic Acid]	6.25
CCOc1ccccc1O[C@@H]1CCCN(c2cncc(Nc3nccc(-c4ccc(OC(C)(C)C(=O)O)cc4)n3)n2)C1 [Example 160, (R)-2-(4-(2-((6-(3-(2-ethoxyphenoxy)piperidin-1-yl)pyrazin-2-yl)amino)pyrimidin-4-yl)phenoxy)-2-methylpropanoic Acid]	6.89
CCOc1ccccc1O[C@@H]1CCCN(c2cncc(Nc3nccc(-c4ccc(NC(C)(C)C(=O)O)cc4)n3)n2)C1 [Example 161, (R)-2-((4-(2-((6-(3-(2-ethoxyphenoxy)piperidin-1-yl)pyrazin-2-yl)amino)pyrimidin-4-yl)phenyl)amino)-2-methylpropanoic Acid]	6.72
CCOc1ccccc1O[C@@H]1CCCN(c2cncc(Nc3nccc(Oc4ccc(CC(=O)O)cc4)n3)n2)C1 [Example 162, (R)-2-(4-((2-((6-(3-(2-ethoxyphenoxy)piperidin-1-yl)pyrazin-2-yl)amino)pyrimidin-4-yl)oxy)phenyl)acetic Acid]	6.64
CCOc1cccnc1O[C@@H]1CCCN(c2cncc(Nc3nccc(Oc4ccc(CC(=O)O)cc4)n3)n2)C1 [Example 163]	6.07
CCOc1ccccc1O[C@@H]1CCCN(c2cncc(Nc3ncc(F)c(-c4cccc(CC(C)(C)C(=O)O)c4)n3)n2)C1 [Example 164, (R)-3-(3-(2-((6-(3-(2-ethoxyphenoxy)piperidin-1-yl)pyrazin-2-yl)amino)-5-fluoropyrimidin-4-yl)phenyl)-2,2-dimethylpropanoic Acid]	6.49
CCOc1cccnc1O[C@@H]1CCCN(c2cncc(Nc3ncc(C(F)(F)F)c(-c4cccc(CC(C)(C)C(=O)O)c4)n3)n2)C1 [Example 165, (R)-3-(3-(2-((6-(3-((3-ethoxypyridin-2-yl)oxy)piperidin-1-yl)pyrazin-2-yl)amino)-5-(trifluoromethyl)pyrimidin-4-yl)phenyl)-2,2-dimethylpropanoic Acid]	7.19
CCOc1cccnc1O[C@@H]1CCCN(c2cncc(Nc3nc(-c4cccc(CC(C)(C)C(=O)O)c4)cc(C(F)(F)F)n3)n2)C1 [Example 166, (R)-3-(3-(2-((6-(3-((3-ethoxypyridin-2-yl)oxy)piperidin-1-yl)pyrazin-2-yl)amino)-6-(trifluoromethyl)pyrimidin-4-yl)phenyl)-2,2-dimethylpropanoic Acid]	6.33
CCOc1ccccc1O[C@@H]1CCCN(c2cncc(Nc3nc(-c4cccc(CC(C)(C)C(=O)O)c4)cc(C(F)(F)F)n3)n2)C1 [Example 167, (R)-3-(3-(2-((6-(3-(2-ethoxyphenoxy)piperidin-1-yl)pyrazin-2-yl)amino)-6-(trifluoromethyl)pyrimidin-4-yl)phenyl)-2,2-dimethylpropanoic Acid]	6.17
